Results: article PMC6449605, “Pyrophosphate Stimulates the Phosphate-Sodium Symporter of Trypanosoma brucei Acidocalcisomes and Saccharomyces cerevisiae Vacuoles” (mSphere, 2019)
Each block holds one compound with its values, some of them ahead of it.

Experiments:
Pho91p = target: T1, Pho91p (Saccharomyces cerevisiae, UniProt P27514); test: two-electrode voltage clamp, Xenopus oocytes; type: cell-based; conditions: ND96, room temperature
T1 construct: gene PHO91; full length, cRNA expressed in Xenopus laevis oocytes
T1 sequence (P27514 1-894): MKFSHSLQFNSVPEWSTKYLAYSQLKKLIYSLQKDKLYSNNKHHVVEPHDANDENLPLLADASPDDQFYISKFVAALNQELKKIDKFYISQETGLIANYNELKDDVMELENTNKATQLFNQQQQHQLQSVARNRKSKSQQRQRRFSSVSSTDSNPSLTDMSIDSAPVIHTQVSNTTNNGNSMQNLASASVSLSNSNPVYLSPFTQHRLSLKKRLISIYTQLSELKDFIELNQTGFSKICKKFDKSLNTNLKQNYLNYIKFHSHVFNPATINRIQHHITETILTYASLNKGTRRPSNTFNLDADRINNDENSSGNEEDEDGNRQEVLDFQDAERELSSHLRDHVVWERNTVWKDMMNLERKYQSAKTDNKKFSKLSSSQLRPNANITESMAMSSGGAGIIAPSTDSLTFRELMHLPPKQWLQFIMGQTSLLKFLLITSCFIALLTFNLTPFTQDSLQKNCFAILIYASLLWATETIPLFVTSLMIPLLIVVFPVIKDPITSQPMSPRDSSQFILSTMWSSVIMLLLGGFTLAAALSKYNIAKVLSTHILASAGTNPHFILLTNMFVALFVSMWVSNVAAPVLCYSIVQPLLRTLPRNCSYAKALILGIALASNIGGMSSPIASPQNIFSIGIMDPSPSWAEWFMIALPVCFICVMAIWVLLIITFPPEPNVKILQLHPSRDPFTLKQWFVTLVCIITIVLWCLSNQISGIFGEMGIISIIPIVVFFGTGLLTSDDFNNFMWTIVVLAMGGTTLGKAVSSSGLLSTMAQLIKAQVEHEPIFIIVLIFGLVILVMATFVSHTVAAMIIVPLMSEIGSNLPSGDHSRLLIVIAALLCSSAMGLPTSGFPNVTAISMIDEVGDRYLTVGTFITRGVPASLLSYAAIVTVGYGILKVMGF

TbPho91 = target: T2, TbPho91 (Trypanosoma brucei, UniProt Q383G2); test: two-electrode voltage clamp, Xenopus oocytes; type: cell-based; conditions: activator, modulates 10 mM Pi-evoked current; ND96 pH 7.5; room temperature
T2 construct: full length, cRNA expressed in Xenopus laevis oocytes (also in giant vacuoles of pho91-delta yeast)
T2 sequence (Q383G2 1-728): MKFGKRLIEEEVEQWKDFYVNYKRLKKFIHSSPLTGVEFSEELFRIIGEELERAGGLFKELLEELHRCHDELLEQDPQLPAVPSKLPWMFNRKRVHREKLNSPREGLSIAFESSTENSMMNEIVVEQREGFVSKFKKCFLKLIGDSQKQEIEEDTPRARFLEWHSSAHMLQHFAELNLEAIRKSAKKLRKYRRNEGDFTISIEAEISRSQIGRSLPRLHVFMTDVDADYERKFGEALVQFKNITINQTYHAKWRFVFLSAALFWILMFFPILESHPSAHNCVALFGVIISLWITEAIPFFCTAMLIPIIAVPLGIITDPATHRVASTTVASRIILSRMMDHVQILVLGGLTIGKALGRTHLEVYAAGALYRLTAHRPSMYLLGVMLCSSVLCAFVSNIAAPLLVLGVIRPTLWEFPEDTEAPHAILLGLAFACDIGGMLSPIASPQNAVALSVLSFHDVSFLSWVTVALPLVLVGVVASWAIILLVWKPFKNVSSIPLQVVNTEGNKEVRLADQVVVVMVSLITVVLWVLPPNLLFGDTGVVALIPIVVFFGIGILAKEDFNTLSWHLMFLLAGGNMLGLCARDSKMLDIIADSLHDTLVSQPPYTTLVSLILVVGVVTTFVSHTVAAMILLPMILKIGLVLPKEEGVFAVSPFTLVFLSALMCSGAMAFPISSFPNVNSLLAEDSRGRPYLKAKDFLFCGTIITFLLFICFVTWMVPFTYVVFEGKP

inward current amplitude at 10 mM (Pho91p; activator, 10 mM Na+/PPi): 447.8 ± 84.1 nA
Structure (SMILES): O=P(O)(O)OP(=O)(O)O [PPi]

inward current amplitude at 10 mM (Pho91p; 10 mM Na+/Pi, Na+ co-transported): 146.8 ± 41.6 nA
Structure (SMILES): O=P(O)(O)O [Pi]

Structure (SMILES): O=P(O)(O)OP(=O)(O)OP(=O)(O)O [polyP3]
threshold for significant amplification of Na+/Pi current (TbPho91): 200 µM | inward current amplitude at 10 mM (Pho91p; activator, 10 mM Na+/polyP3): 771.6 ± 168.4 nA
